Measurements taken from US7943340B2, “Fungal dipeptidyl peptidase IV (DPPIV) enzyme for reagent use” (priority 2003, dated 2011).

Key:
ruLAP2 = ruLAP2 (Trichophyton rubrum, UniProt Q5QHG6); assay type: biochemical; settings: inhibitor 40 μM; Leu-MCA substrate
Procedure, shortened: (§1)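 Purified LAPs pre-incubated 15 min at 37°C with inhibitors or metal cations, then Leu-AMC (5 mM final) added and activity measured after 60 min. Inhibitor levels: amastatin and bestatin 500 μM, EDTA and o-phenanthroline 5 or 1 mM, E-64, leupeptin and pepstatin A 100 μM, benzamidine and PMSF 40 μM, TLCK and TPCK 20 μM, pCMB 500 μM.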

[1] = system: all the LAPs tested (ruLAP1, ruLAP2, fuLAP1, fuLAP2, pkLAP); assay type: biochemical; settings: Leu-AMC 5 mM; amastatin 500 μM; ortho-phenantroline 1 and 5 mM; others as
Procedure, shortened: as §1

ruLAP1 = ruLAP1 (Trichophyton rubrum, UniProt Q5QHG5); assay type: biochemical; settings: inhibitor 40 μM; Leu-MCA substrate
Sequence of ruLAP1 (Q5QHG5 19-373): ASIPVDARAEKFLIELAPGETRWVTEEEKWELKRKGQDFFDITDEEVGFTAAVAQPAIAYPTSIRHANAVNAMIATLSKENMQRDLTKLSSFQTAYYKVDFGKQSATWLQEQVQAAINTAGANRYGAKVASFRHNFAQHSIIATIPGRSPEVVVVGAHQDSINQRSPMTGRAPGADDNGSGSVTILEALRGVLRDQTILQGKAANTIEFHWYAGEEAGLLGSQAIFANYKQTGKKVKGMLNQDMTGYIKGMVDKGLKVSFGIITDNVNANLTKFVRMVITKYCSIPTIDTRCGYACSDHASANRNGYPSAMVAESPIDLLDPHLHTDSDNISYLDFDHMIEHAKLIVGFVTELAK
Procedure, shortened: as §1

fuLAP1 = fuLAP1 (Aspergillus fumigatus, UniProt Q5VJG6); assay type: biochemical; settings: inhibitor 40 μM; Leu-MCA substrate
Sequence of fuLAP1 (Q5VJG6 15-388, looked up, natural form): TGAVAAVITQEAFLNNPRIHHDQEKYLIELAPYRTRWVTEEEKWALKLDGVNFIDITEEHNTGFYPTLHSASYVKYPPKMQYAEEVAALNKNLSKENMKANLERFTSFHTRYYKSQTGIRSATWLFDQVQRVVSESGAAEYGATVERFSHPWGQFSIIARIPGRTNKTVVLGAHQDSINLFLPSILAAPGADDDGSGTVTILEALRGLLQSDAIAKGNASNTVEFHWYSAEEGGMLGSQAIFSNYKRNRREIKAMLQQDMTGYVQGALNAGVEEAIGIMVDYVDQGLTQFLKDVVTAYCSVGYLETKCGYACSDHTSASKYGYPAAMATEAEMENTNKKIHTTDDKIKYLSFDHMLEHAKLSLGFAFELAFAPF
Procedure, shortened: as §1

[2] = molecular target: T1, pkLAP (microsomal LAP from porcine kidney) (Sus scrofa, UniProt P15145); experiment: Effect of chemical reagents (inhibitors, metallic cations) on LAP activity with Leu-AMC; assay type: biochemical; settings: inhibitor 40 μM; Leu-MCA substrate
T1 construct: purchased Sigma; host or cells: porcine kidney
T1 sequence (P15145 1-963): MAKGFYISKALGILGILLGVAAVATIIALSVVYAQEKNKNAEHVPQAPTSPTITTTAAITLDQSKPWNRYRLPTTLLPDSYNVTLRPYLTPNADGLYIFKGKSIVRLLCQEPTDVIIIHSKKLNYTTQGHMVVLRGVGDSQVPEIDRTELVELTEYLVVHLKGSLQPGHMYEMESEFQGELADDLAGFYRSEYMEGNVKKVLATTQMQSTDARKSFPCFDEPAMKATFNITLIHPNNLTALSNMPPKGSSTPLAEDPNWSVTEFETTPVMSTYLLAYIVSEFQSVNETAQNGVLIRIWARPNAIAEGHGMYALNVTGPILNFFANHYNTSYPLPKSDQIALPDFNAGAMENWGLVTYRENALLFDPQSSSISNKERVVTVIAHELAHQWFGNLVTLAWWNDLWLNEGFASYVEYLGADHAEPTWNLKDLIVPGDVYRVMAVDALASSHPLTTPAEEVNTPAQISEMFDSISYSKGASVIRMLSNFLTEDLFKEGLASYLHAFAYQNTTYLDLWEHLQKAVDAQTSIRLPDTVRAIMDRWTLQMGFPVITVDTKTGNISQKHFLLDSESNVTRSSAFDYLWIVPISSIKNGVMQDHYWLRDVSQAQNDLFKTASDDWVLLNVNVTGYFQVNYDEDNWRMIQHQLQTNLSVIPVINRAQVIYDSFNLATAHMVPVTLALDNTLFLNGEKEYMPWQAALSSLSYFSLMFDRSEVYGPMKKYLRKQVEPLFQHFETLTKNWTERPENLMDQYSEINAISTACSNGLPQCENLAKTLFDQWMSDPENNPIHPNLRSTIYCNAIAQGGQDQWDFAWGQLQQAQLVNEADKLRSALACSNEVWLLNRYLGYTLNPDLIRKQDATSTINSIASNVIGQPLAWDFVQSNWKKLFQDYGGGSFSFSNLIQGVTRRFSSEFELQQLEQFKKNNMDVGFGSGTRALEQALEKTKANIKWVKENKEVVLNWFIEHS
Protocol: (§2) Inhibitors and metallic cations were pre-incubated with the enzymes for 15 min at 37° C. Then, Leu-AMC at a 5 mM final concentration was added. After further incubation for 60 min, enzyme activity was measured as described above. The inhibitors and their concentrations tested purified LAPs were: 500 μM amastatin (Bachem), 40 μM benzamidine (Sigma), 500 μM bestatin (Bachem), 5 mM/l mM EDTA (Sigma). 100 μM E-64 (L-trans-epoxysuccinyl-leu-4-guanidinobutylamide) (Bachem), 100 μM leupeptin (Sigma), 5 mM/1 mM ortho-phenanthroline (Sigma), 500 μM p-chloromercuribenzoic acid (Sigma), 100 μM pepstatin A (Sigma), 40 μM PMSF (Sigma), 20 μM TLCK (Roche Diagnostics), and 20 μM TPCK (Roche Diagnostics).

[3] = system: T. rubrum secreted proteolytic activity; experiment: Inhibition of T. rubrum secreted proteolytic activity (resorufin-labeled casein); assay type: biochemical, Trichophyton rubrum; settings: resorufin-labeled casein as substrate
Protocol: The proteolytic activity was measured using resorufin-labeled casein in phosphate buffer (20 mM; pH 7.4). The reaction mixture contained 0.02% substrate in a total volume of 0.5 ml. After incubation at 37° C., the undigested substrate was precipitated by trichloroacetic add (4% final concentration) and separated from the supernatant by centrifugation. The absorbance at 574 nm of the supernatant was measured after alkalinization by adding 500 μl Tris buffer (500 mM; pH 9.4). For practical purposes, one unit (U) of proteolytic activity was defined as that producing an absorbance of 0.001 per min.
T. rubrum was grown at 30° C. in a medium containing 0.2% soy protein as a sole carbon and nitrogen source. After 14 days of growth, a concomitant clarification of the culture medium was noted and a substantial proteolytic activity (400 U ml^−1) detected using resorufin-labeled casein as substrate. This proteolytic activity was 15% and 85% inhibited by PMSF and ortho-phenanthroline. respectively, attesting that serine and metalloproteases were secreted by T. rubrum. […] In addition, a high activity on substrates such as Leu-AMC and Leu-pNA was detected in the T. rubrum culture supernatant.

fuLAP2 = assay type: biochemical, Aspergillus fumigatus; settings: inhibitor 40 μM; Leu-MCA substrate
Protocol: as §2

gliadin 33 mer = experiment: Digestion of gliadin 33 mer (RP-HPLC, ESI-MS); assay type: biochemical, wheat; settings: 37° C., 1 mM CoCl2, pH7.2
desMet-G-CSF = experiment: Digestion of desMet-G-CSF with DPPIV; settings: overnight 37° C., E/S 1/20 (w:w)
[4] = system: gliadin 14 mer PQPQLPYPQPQLPY; assay type: biochemical, wheat; settings: 4 h, 37° C., 1 mM CoCl2, pH7.2
[5] = Enzymatic activity of T. rubrum AMPP at various pH values (FIG. 4); assay type: biochemical
Source text: FIG. 4 is a graph of the enzymatic activity of T. rubrum AMPP (aminopeptidase P) at various pH values. It appears that AMPP has activity over a broad range of pH values, from pH 6 to 11.

[6] = Enzymatic activity of T. rubrum AMPP at various temperatures (FIG. 5); assay type: biochemical
Source text: FIG. 5 is a graph of the enzymatic activity of T. rubrum AMPP at various temperatures.

Sequence of ruLAP2 (Q5QHG6 22-495): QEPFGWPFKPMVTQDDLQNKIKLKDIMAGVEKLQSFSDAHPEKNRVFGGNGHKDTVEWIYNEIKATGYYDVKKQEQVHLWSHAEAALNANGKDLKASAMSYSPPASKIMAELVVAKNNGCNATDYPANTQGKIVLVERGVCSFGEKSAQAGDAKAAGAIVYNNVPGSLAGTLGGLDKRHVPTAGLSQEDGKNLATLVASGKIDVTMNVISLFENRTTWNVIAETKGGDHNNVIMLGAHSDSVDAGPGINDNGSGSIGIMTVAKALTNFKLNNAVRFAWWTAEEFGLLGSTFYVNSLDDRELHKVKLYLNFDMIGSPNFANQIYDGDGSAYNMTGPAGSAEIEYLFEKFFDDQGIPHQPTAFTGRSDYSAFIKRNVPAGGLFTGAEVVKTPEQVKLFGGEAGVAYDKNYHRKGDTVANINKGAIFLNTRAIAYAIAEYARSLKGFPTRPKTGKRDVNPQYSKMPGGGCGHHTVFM

O=S(=O)(F)Cc1ccccc1 [PMSF]
ruLAP2 hydrolytic activity, percentage of control without inhibitor (ruLAP2): 79% | effect of inhibitor on all the LAPs tested [1]: no clear inhibitory effects | ruLAP1 hydrolytic activity, percentage of control without inhibitor (ruLAP1): 78% | fuLAP1 hydrolytic activity, percentage of control without inhibitor (fuLAP1): 156% | pkLAP hydrolytic activity, percentage of control without inhibitor [2]: 58% | inhibition of proteolytic activity [3]: 15% | fuLAP2 hydrolytic activity, percentage of control without inhibitor (fuLAP2): 84%

ruDPPIV: T. rubrum dipeptidylpeptidase IV, 775 amino acid residues (SEQ ID NO: 35)
digestion of the 33 mer (gliadin 33 mer): not a substrate | cleavage of N-terminal dipeptide from desMet-G-CSF (desMet-G-CSF): Traces of undigested material are still present | digestion of the 14 mer [4]: not able to hydrolyse the peptide

B1: AMPP: T. rubrum aminopeptidase P (SEQ ID NO: 24) (protein, listed as Trichophyton rubrum)
chain: MPPPPVDTTQRLAKLRELMAQNKVDVYIVPSEDSHQSEYIAPCDGRRAFISSFTGSAGCAIVSMSKAALSTDGRYFSQAAKQLDANWILLKRGVEGVPTWEEWTAEQAETRQGCGSDARKLSQTLKTTGGSLVGIDQNLIDAVWGDERPARPANQITVQPVERAGKSFEEKVEDLRKELTAKKRSAMVISSKFLYKWYLSLYTKSHADWCSIPYNPVFFSYAIVTPSVAELYVDESKLSPEARKHLEGKVVLKPYESIFQASKVLAESKASASSGSSGKFLLSNKASWSLSLALGGEQNVVEVRSPITDAKAIKNEVELEGFRKCHIRDGAALIEYFAWLENALIKEGAKLDEVDGADKLFEIRKKYDLFVGNSFDTISSTGANGATIHYKPEKSTCAIIDPKAMYLCDSGGQYLDGTTDTTRTLHFGEPTEFQKKAYALVLKGHISIDNAIFPKGTTGYAIDSFARQHLWKEGLDYLHGTGHGVGSFLNVHEGPMGIGSRAQYAEVPLSASNSLDIMKTATSAFVSRVSSMTAYSSFFILTASLDLVICKEVQTAHKFGDKPFLGFESITLVPFCQKLLDASLLTEAERKWVNDYHAKVWEKTSPFFEKDELTTAWLKRETQPI
pH range of activity [5]: 6 to 11 pH | optimal temperature [6]: 50 C | temperature range of activity [6]: 25 to 60 C
